From US10227323B2, “Glucosylceramide synthase inhibitors for the treatment of diseases” (BIOMARIN PHARMACEUTICAL INC., priority 2013, dated 2019) come the findings set out here.

What is called IC50 is the concentration needed to halve the response being measured.

In the assay the target is T1, GCS (Canis lupus familiaris, UniProt A0A8I3MXG6).
T1 sequence (A0A8I3MXG6 1-394): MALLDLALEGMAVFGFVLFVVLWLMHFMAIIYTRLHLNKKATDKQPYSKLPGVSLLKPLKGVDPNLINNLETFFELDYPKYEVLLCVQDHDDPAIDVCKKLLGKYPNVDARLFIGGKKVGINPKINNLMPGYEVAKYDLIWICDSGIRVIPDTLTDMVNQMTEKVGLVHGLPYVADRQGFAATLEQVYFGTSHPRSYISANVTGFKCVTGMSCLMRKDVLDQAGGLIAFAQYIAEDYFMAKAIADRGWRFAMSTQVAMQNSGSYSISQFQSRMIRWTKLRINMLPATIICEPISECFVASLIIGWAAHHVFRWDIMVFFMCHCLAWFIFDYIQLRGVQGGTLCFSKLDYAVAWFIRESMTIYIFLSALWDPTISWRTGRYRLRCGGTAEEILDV
Put plainly: Assay 1: GCS Enzymatic Assay (MDCK cell lysate, C6-NBD-Ceramide, LC/MS). In kind it is biochemical, canine. The following applies: Table 3, MDCK cell lysate; for IC50: read-out: IC50 (nM) generated from Assay 1. In a few lines: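 LC/MS/MS measurement of glucosylceramide and NBD-ceramide after a 1 h, 37 °C reaction with 100 μM UDP-glucose and 10 μM C6-NBD-ceramide gave IC50s or percent inhibition.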

With `O=C(N[C@H](CN1CCCC1)[C@H](O)c1cc(F)c2c(c1)OCCO2)C(F)(F)c1ccc(-c2ccc(Cl)s2)cc1` [Example 398, 2-(4-(5-chlorothiophen-2-yl)phenyl)-2,2-difluoro-N-((1R,2R)-1-(8-fluoro-2,3-dihydrobenzo[b][1,4]dioxin-6-yl)-1-hydroxy-3-(pyrrolidin-1-yl)propan-2-yl)acetamide], the IC50 was less than 50 nM.
Same read-out and setting: as for `O=C(N[C@H](CN1CCCC1)[C@H](O)c1ccc(OC2CC2)cc1)C(=O)c1cc2ccc(Cl)cc2s1` [Example 399, 2-(6-chlorobenzo[b]thiophen-2-yl)-N-((1R,2R)-1-(4-cyclopropoxyphenyl)-1-hydroxy-3-(pyrrolidin-1-yl)propan-2-yl)-2-oxoacetamide], the figure is less than 50 nM; as for `O=C(N[C@H](CN1CCCC1)[C@H](O)c1ccc(OC2CC2)c(Cl)c1)C(=O)c1ccc(-n2cccn2)cc1` [Example 400, 2-(4-(1H-pyrazol-1-yl)phenyl)-N-((1R,2R)-1-(3-chloro-4-cyclopropoxyphenyl)-1-hydroxy-3-(pyrrolidin-1-yl)propan-2-yl)-2-oxoacetamide], less than 50 nM.
The same measure, in the same setting: as for `C#Cc1ccc(C(=O)C(=O)N[C@H](CN2CCCC2)[C@H](O)c2ccc(OC3CC3)cc2)cc1` [Example 401, N-((1R,2R)-1-(4-cyclopropoxyphenyl)-1-hydroxy-3-(pyrrolidin-1-yl)propan-2-yl)-2-(4-ethynylphenyl)-2-oxoacetamide], the figure is 50 to 5000 nM.
Same read-out and setting: as for `O=C(N[C@H](CN1CCCC1)[C@H](O)c1ccc(OC2CC2)cc1)C(F)(F)CCc1ccc2cc(Cl)ccc2c1` [Example 402, 4-(6-chloronaphthalen-2-yl)-N-((1R,2R)-1-(4-cyclopropoxyphenyl)-1-hydroxy-3-(pyrrolidin-1-yl)propan-2-yl)-2,2-difluorobutanamide], the figure is 50 to 5000 nM; as for `O=C(N[C@H](CN1CCCC1)[C@H](O)c1ccc(OC2CC2)c(Cl)c1)C(=O)c1ccc(-n2nccn2)cc1` [Example 403, 2-(4-(2H-1,2,3-triazol-2-yl)phenyl)-N-((1R,2R)-1-(3-chloro-4-cyclopropoxyphenyl)-1-hydroxy-3-(pyrrolidin-1-yl)propan-2-yl)-2-oxoacetamide], less than 50 nM.
In the case of `CN(C(=O)C(=O)c1ccc(-c2ccc(F)cc2)cc1)[C@H](CN1CCCC1)[C@H](O)c1ccc(OC2CC2)c(F)c1` [Example 404, N-((1R,2R)-1-(4-cyclopropoxy-3-fluorophenyl)-1-hydroxy-3-(pyrrolidin-1-yl)propan-2-yl)-2-(4′-fluoro-[1,1′-biphenyl]-4-yl)-N-methyl-2-oxoacetamide], the IC50 is less than 50 nM.
As for `O=C(N[C@H](CN1CCCC1)[C@H](O)c1ccc(OC(F)F)cc1)C(=O)c1cc2ccc(Cl)cc2s1` [Example 405, 2-(6-chlorobenzo[b]thiophen-2-yl)-N-((1R,2R)-1-(4-(difluoromethoxy)phenyl)-1-hydroxy-3-(pyrrolidin-1-yl)propan-2-yl)-2-oxoacetamide], the IC50 lay in the range of 50 to 5000 nM.
As for `O=C(N[C@H](CN1CCCC1)[C@H](O)c1ccc(OC2CC2)c(Cl)c1)/C(CCc1ccc2cc(F)ccc2c1)=N/O` [Example 406, (E)-N-((1R,2R)-1-(3-chloro-4-cyclopropoxyphenyl)-1-hydroxy-3-(pyrrolidin-1-yl)propan-2-yl)-4-(6-fluoronaphthalen-2-yl)-2-(hydroxyimino)butanamide], where the note is “values marked *”, the “% inhibition generated from Assay 1” value is “A* (the compound had a % inhibition of a percent inhibition of greater than or equal to about 50%)”.
